Results: patent US8404733B2, “Laser enhanced amino acid blend and use of same to regenerate active myocardial tissue” (priority 2010, dated 2013)

System: murine macrophages
Experiment: TNF-alpha production (ELISA) by Echinacea activated murine macrophages
Assay type: cell-based
Conditions: 24 hours; amino acid samples 20 mg/ml together with Echinacea; LPS 1 ng/ml; Negative Control 215 +/- 13.7
Text: The rationale for the use of this process of laser enhancement is the result of an in vitro study using a similar short wavelength laser treatment. In this study, murine macrophages that were activated with Echinacea to simulate an irritated immune system were then fed the above formula of amino acids in the untreated and laser treated conditions. […] The specific details of the in vitro study are as follows. 20 grams of the amino acid blend as detailed above was used for each of the control and treated amino acid samples. The Untreated Sample was not treated. The Treated Sample was exposed to laser radiation from a 458 nm pumped argon gas laser with a primary power of 16.5 mW adjusted through the optics to a power level of 5.1 mW The duration of treatment of the sample was 30 seconds. The following bioassays were performed. A standardized Echinacea sample alone or with 20 mg/ml of the Untreated or Treated Sample amino acids were incubated in tissue culture media of triplicate wells of murine macrophages. […] The results were as follows and are expressed as the mean TNF-alpha production plus or minus the statistical standard deviation (SD): Using a Student's 2-tailed t-test, the Echinacea Stimulated Sample was compared to the results of Echinacea plus the Untreated Amino Acid Sample or the Treated Amino Acid Sample.

lipopolysaccharide [LPS]
TNF-alpha +/- SD (mean TNF-alpha production): 2863 +/− 185.7
